Source: patent US20100049117A1, “Microporator for Porating a Biological Membrane and Integrated Permeant Administering System” (PANTEC BIOSOLUTIONS AG, priority 2005, published 2010)

Assay: Serum concentration of drug over time after application onto microporated skin (FIG. 10a, 10b)
Type: in vivo
Settings: for period of time of maximal serum concentration: transdermal
Text: FIG. 10a, 10b show the serum concentration of a drug over time, with the same amount of drug but different permeation surfaces.
The drug is entering the permeation surface by passive diffusion. The amount of drug entering the permeation surface is mainly determined by the permeation surface A(t) over time. Therefore, the serum concentration as a function of time can be determined by an appropriate poration of the skin 1 with an initial microporation.
FIG. 10a to 10b show the administration of the same drug, for example 100 mg acetylsalicylic acid, the drug being arranged on the skin 1 as disclosed in FIG. 3c. Depending on the permeation surface A(t) as a function of time, the level of the serum concentration as well as the time period within which the drug is released, can be predescribed. In FIG. 10a the permeation surface A(t), not shown in detail, is chosen such that the maximal serum concentration is about 25 g/l over a short period of time of about two hours. […] A further advantage is that the same amount of drug, e.g. the same patch, applied onto the skin 1, causes a different serum concentration, depending only on the function of the permeation surface A over time. This allows administering the same drug in different ways. This also allows administering the same drug in an individual way, in that the initial permeation surface is created depending on individual parameters of the person the drug is applied to.

period of time of maximal serum concentration (FIG. 10a, 100 mg): about two | maximal serum concentration (FIG. 10b, 100 mg, fast application (turbo), patch on microporated skin (transdermal)): about 30 g/l | period of time of maximal serum concentration (FIG. 10b, 100 mg, fast application (turbo)): about two | course of serum concentration (oral application OA): heavy fluctuation | course of serum concentration (transdermal application TD): about constant value
SMILES: CC(=O)Oc1ccccc1C(=O)O [acetylsalicylic acid]
